From PubChem BioAssay (NCI)
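Where inhibition never reached the appropriate level, the endpoint shown equals the highest concentration tested. Otherwise, values were interpolated linearly from a five-concentration, 48-hour dose response in 96-well plates. TGI is the concentration that stops growth completely.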

Legend:
Experiment in all cases: NCI tumour cell line growth inhibition, 48 h
[1] = test system: NCI-H23 lung
[2] = test system: SK-MEL-5 melanoma
[3] = test system: COLO 205 colon
[4] = test system: UACC-62 melanoma
[5] = test system: U251 CNS
[6] = test system: HS 578T breast
[7] = test system: HOP-62 NSCLC
[8] = test system: BT-549 breast
[9] = test system: CCRF-CEM leukemia
[10] = test system: OVCAR-4 ovarian
[11] = test system: DU-145 prostate
[12] = test system: A498 renal
[13] = test system: NCI-H522 lung
[14] = test system: SF-268 CNS
[15] = test system: NCI/ADR-RES ovarian
[16] = test system: RPMI-8226 leukemia
[17] = test system: M14 melanoma
[18] = test system: MOLT-4 leukemia
[19] = test system: 786-0 renal
[20] = test system: OVCAR-5 ovarian

Structure (SMILES)	TGI [1] [µM]	TGI [2] [µM]	TGI [3] [µM]	TGI [4] [µM]	TGI [5] [µM]	TGI [6] [µM]	TGI [7] [µM]	TGI [8] [µM]	TGI [9] [µM]	TGI [10] [µM]	TGI [11] [µM]	TGI [12] [µM]	TGI [13] [µM]	TGI [14] [µM]	TGI [15] [µM]	TGI [16] [µM]	TGI [17] [µM]	TGI [18] [µM]	TGI [19] [µM]	TGI [20] [µM]
CC(NP(=O)(c1ccccc1)c1ccccc1)c1ccccc1 (stereo not given)	> 100	> 100	> 100	> 100	> 100	> 100	> 100	> 100	> 100	> 100	> 100	> 100	> 100	> 100	> 100	> 100	> 100	> 100	> 100	> 100
C=CCSC1=N/C(=C\c2ccc(OC)cc2)C(=O)N1CC=C	> 100	29	40.2	> 100	> 100	> 100	> 100	74.4	78	> 100	> 100	66.6	> 100	> 100	> 100	42	> 100	37.1	> 100	> 100
COc1ccc(C[C@@H](C(=O)O[C@H](C)[C@H](NC(=O)[C@@H](CC(C)C)N(C)C(=O)C2CCCN2C(=O)[C@H](C)O)C(=O)N2CCCCNC(=O)[C@@H](C)C(=O)[C@H](C(C)C)OC(=O)C[C@H](O)[C@H]2CC(C)C)N(C)C(C)=O)cc1 (stereo not given in full)	42.5	34.1	14.8	22	21.8	34.8	> 50	> 50	26.1	> 50	> 50	43.6	> 50	> 50	> 50	26.8	> 50	35.2	> 50	> 50
Cc1ccc2c(=O)c(-c3nnc(NC4CCCCC4)s3)c[nH]c2n1	> 100	> 100	> 100	> 100	> 100	> 100	> 100	> 100	> 100	> 100	> 100	> 100	> 100	> 100	> 100	> 100	> 100	> 100	> 100	> 100
N#Cc1c(N)nc(SCc2ccccc2)c(C#N)c1-c1ccc(O)cc1	33.2	27.1	37.8	39.8	30.5	> 100	32.6	24.7	38.6	30.4	27.2	30.6	36.3	66.9	45.7	29.8	29.2	23.1	30.6	32.2
COc1ccc(-c2c(-c3ccccc3)c(C)nc3[nH]c(=S)[nH]c(=S)c23)cc1OC	> 100	> 100	72.1	40.2	> 100	> 100	89.6	> 100	72.5	> 100	> 100	> 100	85.8	> 100	> 100	> 100	> 100	63.6	> 100	> 100
C[C@H](CCC(=O)NCCS(=O)(=O)O)[C@H]1CC[C@H]2[C@@H]3[C@H](O)C[C@@H]4C[C@H](O)CC[C@]4(C)[C@H]3CC[C@]12C	> 100	> 100	> 100	> 100	> 100	> 100	> 100	> 100	> 100	> 100	> 100	> 100	> 100	> 100	> 100	> 100	> 100	> 100	> 100	> 100
COc1ccc2c(C)cc(N/N=C/c3ccc(C)s3)nc2c1	> 48.8	16	9.24	> 54.6	> 48	> 90.9	56.9	62.8	> 93.7	> 63.9	23.9	52.9	> 100	> 100	73.5	> 35.7	23.2	36.9	31.6	30.2
Nc1nc(Cl)c(N)c(NCC2(CO)CCC(CCc3ccccc3)C2)n1 (stereo not given)	28.6	15.1	25.1	26	29	> 63.8	36.7	32.6	48.8	77.5	55.1	49.5	26.3	40.2	> 63.1	47.7	27.4	28	61.2	63.5
CSC1(C(=O)O)C2CCC3C2CCC31 (stereo not given)	> 100	> 100	> 100	> 100	> 100	> 100	> 100	> 100	> 100	> 100	> 100	> 100	> 100	> 100	> 100	> 100	> 100	> 100	> 100	> 100
CCOC(=O)c1csc(C(CSCc2ccc(OC)cc2)N2C(=O)c3ccccc3C2=O)n1 (stereo not given)	> 100	> 100	> 100	> 100	> 100	> 100	> 100	> 100	> 100	> 100	> 100	> 100	58.4	> 100	> 100	> 100	> 100	> 100	> 100	> 100
COc1ccc(CCc2ccc3c(c2)OCO3)cc1	> 100	> 100	> 100	> 100	> 100	> 100	> 100	> 100	> 100	> 100	> 100	> 100	> 100	> 100	> 100	> 100	> 100	> 100	> 100	> 100
C[C@@H](NC(=O)Cn1c(Cl)nc2ccccc21)c1ccccc1	> 100	> 100	> 100	> 100	> 100	> 100	> 100	> 100	> 100	> 100	> 100	> 100	> 100	> 100	> 100	> 100	> 100	> 100	> 100	> 100
Cc1cc(N(CCC#N)CCC#N)ccc1/C=C(\NC(=O)/C=C/c1ccccc1)C(=O)Nc1ccc(Cl)cc1	> 100	5.95	12.7	> 14.7	> 43.9	> 100	> 100	> 100	> 100	> 100	> 100	> 100	> 100	> 100	> 100	> 100	> 100	> 100	> 100	> 100
O=C1C=C(NCC(c2ccccc2)c2ccccc2)C(=O)c2ncccc21	5.76	1.62	24.4	2.9	11.4	12.3	4.02	5.09	9.7	7.29	4.74	9.69	3.57	13.8	8.05	5.84	3.25	6.91	15.3	10.1
COc1cccc(/C=C2\SC(=S)N(/C=C3\C(=O)Oc4ccccc4C3=O)C2=O)c1O	> 100	> 100	> 100	> 100	> 100	82.3	> 100	55.6	> 100	> 100	> 100	48	> 100	> 100	> 100	80.3	> 100	> 100	> 100	> 100
O=C1N/C(=N\N=C\c2ccccc2)C2(CCCCC2)O1	> 100	> 100	> 100	> 100	> 100	> 100	> 100	> 100	61.1	> 100	> 100	> 100	> 100	> 100	> 100	> 100	> 100	> 100	> 100	> 100
Cc1nc2c(O)c3c(c(O)c2nc1C)C1C=CC3CC1	26.5	27.7	38.4	67.2	21.6	78.3	36.4	30.4	3.53	6.22	> 100	81.5	37.5	32.9	18.5	15.4	29.4	2.9	27.6	34.9
